Test results: patent publication US20260137679A1, “GCN2 INHIBITOR FOR TREATING METASTASES” (HIBERCELL, INC., priority 2022, published 2026)

How the values were obtained:
[1] = Spleen weight (splenomegaly) in 4T1 allografted mice; type: in vivo, mouse; details: especially at the activating 3 mg/kg dose level; 3 independent studies; FIG. 8B
Method: (§1) Lungs were perfused with PBS through the heart to remove as much blood as possible prior to collection. Spleens were collected and weighed. […] The remaining lungs were collected with remaining spleen in RPMI medium+5% FBS on ice for flow cytometry. Separate animals were enrolled for lung IHC analyses. Following euthanasia of these animals, lungs were inflated with 10% neutral buffered formalin prior to formalin fixation for 48 hours and paraffin embedding.

[2] = system: ISR-induced amino acid biosynthesis proteins ASNS and PSAT1; test: IHC of ISR-induced proteins in lungs of 4T1 tumor-bearing mice; type: in vivo, mouse; details: 3 mg/kg HC-7366; 21 days post treatment initiation; FIG. 7B
Method: as §1
Multiple paraffin sections more than 200 μm apart were cut for each lung sample. Three sections were stained with H&E on Leica Autostainer while one adjacent section was immuno-stained for ASNS (Cell Signaling #92479) and PSAT1 (Proteintech #10501-1-AP) using the Bond Rx stainer (Leica Biosystems). Stained slides were digitized using Versa 200 slide scanner (Leica Biosystems). Images were analyzed using custom-written macros in ImageJ/FIJI (NIH) analyzing the relative proportion of tumor regions to the whole lung area. The tumor regions were transferred onto the images of immune-stained sections and intensities of ASNS and PSAT1 signals within these tumor regions were quantified. (Graphing and statistics were performed using Prism Graphpad).

[3] = system: ISR-induced proteins (PSAT1, ATF4, TRIB3, ASNS); test: JESS measurement of ISR-induced proteins in primary 4T1 tumors; type: in vivo, mouse; details: 3 mg/kg HC-7366; 7 days post treatment initiation; FIG. 7C
Method: A small (lentil-sized) piece of frozen tumor was lysed in 500 μl of lysis buffer containing 2% SDS, 10% betamercaptoethanol, protease and phosphatase inhibitors (Roche, 04 693 159 001 and 04 906 837 001), and 1× Benzonase (Sigma, E1014-25KU). Each sample was homogenized using a polytron (PT 10-35 GT) for 30 seconds, and heated at 95° C. for 5 minutes. Protein concentrations were determined using a 660 nm Protein assay (Pierce, 22662), with the detergent compatibility reagent (Pierce, 22663), according to manufacturer instructions.
Protein samples were analyzed by JESS (ProteinSimple) using the 12-230 kDa separation module (ProteinSimple, SM-W004), and antibodies targeting PSAT1 (Proteintech, 10501-1-AP), ATF4 (AbCam, ab184909), TRIB3 (Proteintech, 66702-1), and ASNS (Proteintech, 14681-1-AP).

[4] = system: 4T1 mouse breast cancer cell line; test: 4T1 murine orthotopic allograft tumor model, lung metastases (H&E analysis); type: in vivo
Description: (§2) 4T1 mouse breast cancer cell line was purchased from American Type Culture Collection (ATCC). Cells were free of human and animal pathogens as tested by h-IMPACT-I and IMPACT-III. Additionally, the genetic profile of the cells matched with the ECACC reference standard as tested by STR based DNA fingerprinting assay. Cells were maintained in RPMI 1640 with 10% FBS, and cultured up to 4 passages prior to implantation. Cells were harvested at ˜80% confluence, washed twice with RPMI 1640 without FBS and suspended in RPMI 1640 without FBS at 10×10^6 cells/mL for implantation.
(§3) Female Balb/c mice (7-8 week of age) were implanted into the right 4th mammary fat pad under Isoflurane anesthesia with 0.5×10^6 4T1 cells/mouse in a total volume of […] on Day 0 Animals were randomized into treatment groups when the average tumor volume reached 50-100 mm^3 on Day 6 post inoculation. Tumors were measured via caliper 2×/week. Tumor volume was calculated using the formula [tumor volume (mm^3)=π/6×length×width^2) Animals were sacrificed at either 7, 14, or 21 days post treatment via CO2 asphyxiation.
as §1
Multiple paraffin sections more than 200 μm apart were cut for each lung sample. […] Images were analyzed using custom-written macros in ImageJ/FIJI (NIH) analyzing the relative proportion of tumor regions to the whole lung area. The tumor regions were transferred onto the images of immune-stained sections and intensities of ASNS and PSAT1 signals within these tumor regions were quantified. […]

[5] = system: MDSCs and T-cells; test: Flow cytometry of single cell suspensions from spleens and lungs of 4T1 mice; type: in vivo, mouse
Description: Tissue processing for single cell suspensions: • Spleen: Spleens were mashed through wetted 70 μm nylon strainer using syringe plunger. Strainers were rinsed with RPMI+5% FBS. Cells were pelleted and RBCs lysed with ACK lysis buffer (Gibco) per manufacturer's instructions. Cells were resuspended in RPMI+5% FBS and counted prior to plating for staining. • Lungs: Lungs were homogenized and enzymatically digested using a Mouse Tumor Dissociation Kit (miltenyi) per manufacturer's instructions. Cells were resuspended in RPMI+5% FBS and counted prior to plating for staining. During the digestion at 37° C., brefeldin A (Biolegend) was included in the enzyme mix to prevent export of cytokines.
1E6 cells per sample were plated in 96 well plates and extracellular staining was performed per standard procedures. Following extracellular staining, cells were fixed and permeabilized using FoxP3/Transcription Factor Staining Buffer Kit (Tonbo) and intracellular staining was performed per standard procedures. The following antibodies were used.
Following staining, flow cytometry was performed on a Cytek Aurora cytometer and analyzed using FlowJo software.

[6] = system: S100A8 and S100A9; test: S100A8 and S100A9 levels in PBMCs and plasma of 4T1 allografted mice; type: in vivo, mouse; details: FIG. 15C
[7] = system: primary 4T1 tumors; test: 4T1 orthotopic allograft, primary tumor volume; type: in vivo, mouse; details: PO, BID; three independent studies; FIG. 4
Description: as §2, §3

[8] = system: myeloid cells (immune gene transcripts); test: Quantigene gene expression analysis of tumors and spleens of 4T1 mice; type: in vivo, mouse; details: Day 21 of Tx, FIG. 9
Method: Mouse tumor and spleen tissues were snap frozen and stored in −80° C. freezer. The frozen tissue was soaked in 10× volume of the RNAlater®-ICE (ThermoFisher) at −20° C. for >16 hr. Then the tissue was transferred into M tube (Miltenyi Biotech) containing RLT lysis buffer (Qiagen) and homogenized by gentleMACS Dissociators with program of RNA_02 (Miltenyi Biotech). Total RNA was isolated from homogenized tissue using the RNeasy Plus Mini Kit (Qiagen) RNA concentration was determined by Epoch Microplate Spectrophotometer (Biotek).
A custom-made 77-plex mouse Immune QuantiGene Assay kit (ThermoFisher Scientific) using a bead-based multiplex assay were used to measure the expression of 69 immune genes, 4 stress genes plus 4 reference genes with Luminex xMAP 200 (ThermoFisher Scientific) according to the manufacturer's instructions.

[9] = system: BM-derived MDSCs / T-cells; test: Ex vivo co-culture of bone marrow-derived MDSCs with purified T-cells in tryptophan-depleted medium; type: cell-based, mouse; details: 0.1 μM HC-7366, 1:8 MDSCs:T-cells, FIG. 11B
Method: Single cell suspensions from mouse bone marrow were prepared. Cells were cultured in RPMI complete medium supplemented with GMCSF & IL6 (10 μg/mL) for 4 days to differentiate cells into PMN-MDSCs. T-cells were purified from mouse spleens with EasySep Mouse T-cell isolation kit per manufacturer's instructions Purified T-cells cells were then stained with CellTrace Violet dye (thermo) per manufacturer's instructions. Differentiated MDSCs and purified T-cells were co-cultured in tryptophan-depleted medium+/−HC-7366 (0.1 μM) for […], at a ratio of 1:8 MDSCs:T-cells. Proliferation of T-cells was measured by dilution of CTV via flow cytometry on a BD LSR Fortessa.

[10] = system: CD4 and CD8 T-cells, S100A8/S100A9 in CD11b+ cells; test: Multiplex imaging of FFPE lung samples from 4T1 allografted mice; type: in vivo, mouse
Method: Slides were cut from FFPE lung samples. Slides were deparaffinized, rehydrated and heat mediated antigen retrieval was conducted with AR6 buffer (Akoya). Slides were blocked with Roche diagnostics antibody diluent (Fisher) and stained with primary antibodies for 1 hr at 110 rpm. HRP-conjugated secondary antibodies were added for 10 mins at 110 rpm followed by 10 mins with OPAL detection dye (Akoya). For multiplex staining, this process was repeated starting at the antigen retrieval stage. Multispectral Images were captured on the Polaris imaging system (Akoya) and spectral unmixing and cell segmentation was performed using Inform Tissue Finder software (Akoya). Imaging data was converted into .csv files and imported into Flowjo for immune phenotyping.
Primary antibodies used were rat anti-mouse CD4 (clone 4SM95, Thermo 14-9766-82-82, paired with Opal 620), rabbit anti-mouse Ki67 (clone SP6, Thermo MA5-14520, paired with Opal 780), rabbit anti-mouse CD8a (clone D4W2Z, Cell Signaling 98941, paired with Opal 520). Rabbit anti-mouse S1008A (Polyclonal, Proteintech 15792-1-AP, paired with Opal 520), rabbit anti-mouse S1009A (Polyclonal, Proteintech 26992-1-AP, paired with Opal 570), rabbit anti-mouse CD11b (clone EPR1344, Abcam 133357, paired with Opal 690).

[11] = 3 mg/kg HC-7366, Day 14, FIGS. 10B-10C
[12] = 4T1 allografted mice, FIGS. 15A-15B
[13] = greater in metastatic lesions than in normal tissue, FIGS. 12E-12F

For `CNC(=O)c1ncn2cc(-c3c(F)ccc(NS(=O)(=O)c4cc(Cl)cnc4OC)c3F)ncc12` [HC-7366, 6-(3-((5-chloro-2-methoxypyridine)-3-sulfonamido)-2,6-difluorophenyl)-N-methylimidazo[1,5-a]pyrazine-1-carboxamide], the “splenomegaly (spleen weight)” value [1] was “significantly decreases splenomegaly”, the “ASNS expression in lungs (IHC)” value [2] was “Significant increases” and the “PSAT1 expression in lungs (IHC)” value [2] was “Significant increases”. For the same compound, the “ASNS protein in primary 4T1 tumors (JESS)” value [3] was “Increases”, the “ATF4 protein in primary 4T1 tumors (JESS)” value [3] was “Increases” and the “PSAT1 protein in primary 4T1 tumors (JESS)” value [3] was “Increases”. The “TRIB3 protein in primary 4T1 tumors (JESS)” value [3] was “Increases”, the “overall metastatic area in lung samples” value ([4]; 30 mg/kg HC-7366, 4T1 allografted mice, FIGS. 1A-1B) was “significant reduction in overall metastatic area” and the “anti-metastatic effect in lungs of tumor bearing mice” value ([4]; 1-3 mg/kg HC-7366, PO, BID, lungs collected 21 days after treatment initiation, FIGS. 5A-5C) was “consistent anti-metastatic effect”. The “number of lung metastases” value ([4]; combination therapy of HC-7366 with anti-PD-1 therapy, FIG. 2) was “significant reduction in the number of lung metastases”, the “CD86 on MDSCs in the spleen and lungs” value [5, 11] was “significantly increased” and the “MHCII on MDSCs in the spleen and lungs” value [5, 11] was “significantly increased”. For the same compound, the “CD98 expression on CD8 T-cells in the lungs” value ([5]; 3 mg/kg HC-7366, FIG. 14A) was “not on CD8 T-cells”, the “CD98 expression on MDSCs in the lungs” value ([5]; 3 mg/kg HC-7366, FIG. 14A) was “significantly increased” and the “CD98 expression on MDSCs and CD8 T-cells in the spleen” value ([5]; 3 mg/kg HC-7366, both cell subsets, FIG. 14B) was “increased CD98 expression”. The “MDSC frequency in spleens and lungs” value ([5]; 3 mg/kg HC-7366, both organs, FIG. 10A) was “significantly reduced”, the “activation markers of CD4 and CD8 T-cells in lungs (intracellular flow cytometry)” value ([5]; Day 21 of Tx, FIGS. 13A-13B) was “significantly increased activation markers” and the “activation markers of CD4 and CD8 T-cells in spleens (intracellular flow cytometry)” value ([5]; Day 21 of Tx, FIGS. 13C-13D) was “not in spleens”. For the same compound, the “S100A8 and S100A9 levels in PBMCs” value [6] was “significant reductions”, the “S100A8 and S100A9 levels in plasma” value [6] was “significant reductions” and the “efficacy on primary 4T1 tumors (tumor volume)” value [7] was “little to no efficacy”. The “gene expression in MDSC-enriched spleens” value ([8]; 3 mg/kg HC-7366) was “consistent increases in immune activation transcripts and reductions in inhibitory transcripts”, the “gene expression in tumor tissue” value [8] was “did not show consistent effects” and the “T-cell proliferation in the presence of BM-derived MDSCs (CTV dilution)” value [9] was “significantly rescued T-cell proliferation”. For the same compound, the “S100A8 and S100A9 levels in lung metastases” value [10, 12] was “significant reductions”, the “S100A8 and S100A9 levels in normal lung tissue” value [10, 12] was “significant reductions” and the “CD8 T-cells in metastatic lesions of lung” value ([10]; HC-7366 treated 4T1 allografted mice, FIG. 12C) was “significantly increased”. The “CD8 T-cells in normal lung tissue” value ([10]; HC-7366 treated 4T1 allografted mice, increase compared with that in metastatic lesions, FIG. 12D) was “to a lesser degree”, the “Ki67 expression of CD4 T-cells in lung” value [10, 13] was “significantly increased Ki67 expression” and the “Ki67 expression of CD8 T-cells in lung” value [10, 13] was “significantly increased Ki67 expression”.
